Test results as given in ChEMBL document CHEMBL1201862, “PubChem BioAssay data set” (2004).
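Cells were grown in 96-well plates and exposed to each compound for 48 hours at five concentrations; endpoints were interpolated linearly between bracketing concentrations, or set to the highest concentration if not reached. The concentration for 50% growth inhibition is given as GI50.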 Calls of active or inactive are those of the source. Cut-off read from the data, not from the text of the source: active = GI50 up to about 1.1 µM and inactive = higher.

Columns and labels:
Test in all cases: DTP human tumour cell line panel, 48 h
[1] = test system: MOLT-4
[2] = test system: LOX IMVI
[3] = test system: HL-60
[4] = test system: BT-549
[5] = test system: OVCAR-3
[6] = test system: T47D
[7] = test system: NCI-H460
[8] = test system: HT-29
[9] = test system: NCI-H23
[10] = test system: MCF7
[11] = test system: SN12C
[12] = test system: NCI/ADR-RES
[13] = test system: SR
[14] = test system: OVCAR-8
[15] = test system: MDA-MB-231
[16] = test system: A498
[17] = test system: SF-268
[18] = test system: OVCAR-4
[19] = test system: RPMI-8226

Row | SMILES | GI50 [1] | GI50 [2] | GI50 [3] | GI50 [4] | GI50 [5] | GI50 [6] | GI50 [7] | GI50 [8] | GI50 [9] | GI50 [10] | GI50 [11] | GI50 [12] | GI50 [13] | GI50 [14] | GI50 [15] | GI50 [16] | GI50 [17] | GI50 [18] | GI50 [19]
1 | O=C1c2cccnc2-c2nccc3c2c1nc1cc(Br)ccc13 | 0.0955 µM (active) | 0.0533 µM (active) | 0.0405 µM (active) | 0.25 µM (active) | 0.124 µM (active) | 0.0883 µM (active) | 0.138 µM (active) | 0.989 µM (active) | 0.0955 µM (active) | < 0.0366 µM (active) | 0.101 µM (active) | 0.0375 µM (active) | 0.0221 µM (active) | 0.0659 µM (active) | 0.103 µM (active) | 0.0196 µM (active) | 0.134 µM (active) | 0.148 µM (active) | 0.0748 µM (active)
2 | COc1cccc(Nc2n[nH]c(NS(=O)(=O)c3cc(C)c(Cl)cc3S)n2)c1 | > 100 µM (inactive) | > 100 µM (inactive) | > 100 µM (inactive) | > 100 µM (inactive) | > 100 µM (inactive) | > 100 µM (inactive) | > 100 µM (inactive) | > 100 µM (inactive) | > 100 µM (inactive) | > 100 µM (inactive) | > 100 µM (inactive) | > 100 µM (inactive) | > 100 µM (inactive) | > 100 µM (inactive) | > 100 µM (inactive) | > 100 µM (inactive) | > 100 µM (inactive) | > 100 µM (inactive) | > 100 µM (inactive)
3 | Cc1ccc(/C(C#N)=C/c2cccc([N+](=O)[O-])c2)cc1 |  | > 100 µM (inactive) |  | > 100 µM (inactive) | > 100 µM (inactive) | > 100 µM (inactive) | > 100 µM (inactive) | > 100 µM (inactive) | > 100 µM (inactive) | > 100 µM (inactive) | > 100 µM (inactive) | > 100 µM (inactive) | > 100 µM (inactive) | 59.2 µM (inactive) | 19.2 µM (inactive) | 59.4 µM (inactive) | 37.2 µM (inactive) | 57.8 µM (inactive) | > 100 µM (inactive)
4 | COc1cc(C(=O)O)c([N+](=O)[O-])c(OC)c1OC | > 100 µM (inactive) | > 100 µM (inactive) |  | > 100 µM (inactive) | > 100 µM (inactive) | > 100 µM (inactive) | > 100 µM (inactive) | > 100 µM (inactive) | > 100 µM (inactive) | > 100 µM (inactive) | > 100 µM (inactive) | > 100 µM (inactive) | > 100 µM (inactive) | > 100 µM (inactive) | > 100 µM (inactive) | > 100 µM (inactive) | > 100 µM (inactive) | > 100 µM (inactive) | > 100 µM (inactive)
5 | Cc1nc2ccccc2n1Cc1nnc(N)o1 | > 100 µM (inactive) | > 100 µM (inactive) | > 100 µM (inactive) | > 100 µM (inactive) | > 100 µM (inactive) | > 100 µM (inactive) | > 100 µM (inactive) | > 100 µM (inactive) | > 100 µM (inactive) | > 100 µM (inactive) | > 100 µM (inactive) | > 100 µM (inactive) | > 100 µM (inactive) | > 100 µM (inactive) | > 100 µM (inactive) | > 100 µM (inactive) | > 100 µM (inactive) |  | > 100 µM (inactive)
6 | OCCCCn1cc(Cn2ncc3c(O)ncnc32)nn1 | > 100 µM (inactive) | > 100 µM (inactive) |  | > 100 µM (inactive) | > 100 µM (inactive) | > 100 µM (inactive) | > 100 µM (inactive) | > 100 µM (inactive) | > 100 µM (inactive) | > 100 µM (inactive) | > 100 µM (inactive) | > 100 µM (inactive) | > 100 µM (inactive) | > 100 µM (inactive) | > 100 µM (inactive) | > 100 µM (inactive) | > 100 µM (inactive) | > 100 µM (inactive) | > 100 µM (inactive)
7 | COC(=O)C1CC2C=CC1N(C(=O)OCc1ccccc1)C2 (configuration not stated) | 81.3 µM (inactive) | > 100 µM (inactive) | > 100 µM (inactive) | > 100 µM (inactive) | > 100 µM (inactive) | 85.7 µM (inactive) | > 100 µM (inactive) | > 100 µM (inactive) | > 100 µM (inactive) | 98.2 µM (inactive) | > 100 µM (inactive) | > 100 µM (inactive) | 59.3 µM (inactive) | > 100 µM (inactive) | > 100 µM (inactive) | > 100 µM (inactive) | > 100 µM (inactive) | > 100 µM (inactive) | > 100 µM (inactive)
8 | CC(=O)/C(=C(/Br)I)c1ccccc1 | 1.73 µM (inactive) | 9.84 µM (inactive) | 1.95 µM (inactive) | 1.97 µM (inactive) | 6.49 µM (inactive) | 3.48 µM (inactive) | 20.3 µM (inactive) | 4.06 µM (inactive) | 4.13 µM (inactive) | 6.47 µM (inactive) | 5.26 µM (inactive) | 9.35 µM (inactive) | 1.94 µM (inactive) | 11.6 µM (inactive) | 13.2 µM (inactive) | 14.5 µM (inactive) | 12 µM (inactive) | 12.5 µM (inactive) | 2.58 µM (inactive)
9 | CC1=NN(c2nc(N)nc(-c3cc4ccccc4oc3=N)n2)C(C)(C)C1 | 12.9 µM (inactive) |  | 18.2 µM (inactive) | 26.7 µM (inactive) | 17.7 µM (inactive) | 16.1 µM (inactive) | 17.3 µM (inactive) | 19.7 µM (inactive) | 16.1 µM (inactive) | 27.7 µM (inactive) | 19.5 µM (inactive) | 22 µM (inactive) | 19.6 µM (inactive) | 26.1 µM (inactive) | 20.1 µM (inactive) | 27.7 µM (inactive) | 19.1 µM (inactive) | 17.4 µM (inactive) | 19.6 µM (inactive)
10 | Cc1ccc(S(=O)(=O)n2ccc(-c3ccc4ccn(S(=O)(=O)c5ccc(C)cc5)c4c3)c2)cc1 | > 100 µM (inactive) | > 100 µM (inactive) | > 100 µM (inactive) | > 100 µM (inactive) | > 100 µM (inactive) | > 100 µM (inactive) |  | > 100 µM (inactive) | > 100 µM (inactive) | > 100 µM (inactive) | > 100 µM (inactive) | > 100 µM (inactive) | > 100 µM (inactive) | > 100 µM (inactive) | > 100 µM (inactive) | > 100 µM (inactive) | > 100 µM (inactive) | > 100 µM (inactive) | > 100 µM (inactive)
11 | COC1(OC)C2(Cl)CCC1(Cl)C(OC(C)=O)C2 (configuration not stated) | > 100 µM (inactive) | > 100 µM (inactive) |  | > 100 µM (inactive) | > 100 µM (inactive) | > 100 µM (inactive) | > 100 µM (inactive) | > 100 µM (inactive) | > 100 µM (inactive) | > 100 µM (inactive) | > 100 µM (inactive) | > 100 µM (inactive) | > 100 µM (inactive) | > 100 µM (inactive) | > 100 µM (inactive) | > 100 µM (inactive) | > 100 µM (inactive) | > 100 µM (inactive) | > 100 µM (inactive)
12 | O=c1n(N=[S+]([O-])(c2ccccc2)c2ccccc2)c(=O)n2n1C1C=CC2CC1 | > 100 µM (inactive) | > 100 µM (inactive) | > 100 µM (inactive) | > 100 µM (inactive) | > 100 µM (inactive) | > 100 µM (inactive) | > 100 µM (inactive) | > 100 µM (inactive) | > 100 µM (inactive) | > 100 µM (inactive) | > 100 µM (inactive) | > 100 µM (inactive) | > 100 µM (inactive) | > 100 µM (inactive) | > 100 µM (inactive) | > 100 µM (inactive) | > 100 µM (inactive) |  | > 100 µM (inactive)
13 | COc1ccc(OC)c2c(=O)cc(-c3ccccc3)[nH]c12 | > 100 µM (inactive) | > 100 µM (inactive) | > 100 µM (inactive) | > 100 µM (inactive) | > 100 µM (inactive) | > 100 µM (inactive) | > 100 µM (inactive) | > 100 µM (inactive) | > 100 µM (inactive) | > 100 µM (inactive) | > 100 µM (inactive) | > 100 µM (inactive) | > 100 µM (inactive) | > 100 µM (inactive) | > 100 µM (inactive) | > 100 µM (inactive) | > 100 µM (inactive) | > 100 µM (inactive) | > 100 µM (inactive)
14 | COc1cc(Cc2cc3c(c(C(=O)O)c2Br)OCO3)cc(OC)c1OC | 56.8 µM (inactive) | 83.8 µM (inactive) | 21.7 µM (inactive) | 47.1 µM (inactive) | > 100 µM (inactive) | > 100 µM (inactive) | > 100 µM (inactive) | > 100 µM (inactive) | > 100 µM (inactive) | 62.1 µM (inactive) | > 100 µM (inactive) | 85.3 µM (inactive) | 52.6 µM (inactive) | > 100 µM (inactive) | > 100 µM (inactive) | > 100 µM (inactive) |  | > 100 µM (inactive) | 
15 | Cc1ccc(C2SCC(=O)N2NC(=O)c2ccncc2)s1 (configuration not stated) | > 100 µM (inactive) | > 100 µM (inactive) |  | > 100 µM (inactive) | > 100 µM (inactive) | > 100 µM (inactive) |  | > 100 µM (inactive) | > 100 µM (inactive) | > 100 µM (inactive) | > 100 µM (inactive) | > 100 µM (inactive) | > 100 µM (inactive) | > 100 µM (inactive) | > 100 µM (inactive) | > 100 µM (inactive) | > 100 µM (inactive) | > 100 µM (inactive) | > 100 µM (inactive)
